In ChEMBL document CHEMBL1221248, “Synthesis and SAR of (piperazin-1-yl-phenyl)-arylsulfonamides: a novel series of atypical antipsychotic agents” (Bioorg Med Chem Lett, 2010):

Target: 5-hydroxytryptamine receptor 2C (Homo sapiens) (UniProt P28335)
Test: Antagonist activity at human 5HT2C receptor expressed in CHO cells assessed as inhibition of 5-HT-stimulated [35S]GTPgamma binding

5-hydroxytryptamine receptor 2C (Homo sapiens), sequence (P28335 whole entry, looked up): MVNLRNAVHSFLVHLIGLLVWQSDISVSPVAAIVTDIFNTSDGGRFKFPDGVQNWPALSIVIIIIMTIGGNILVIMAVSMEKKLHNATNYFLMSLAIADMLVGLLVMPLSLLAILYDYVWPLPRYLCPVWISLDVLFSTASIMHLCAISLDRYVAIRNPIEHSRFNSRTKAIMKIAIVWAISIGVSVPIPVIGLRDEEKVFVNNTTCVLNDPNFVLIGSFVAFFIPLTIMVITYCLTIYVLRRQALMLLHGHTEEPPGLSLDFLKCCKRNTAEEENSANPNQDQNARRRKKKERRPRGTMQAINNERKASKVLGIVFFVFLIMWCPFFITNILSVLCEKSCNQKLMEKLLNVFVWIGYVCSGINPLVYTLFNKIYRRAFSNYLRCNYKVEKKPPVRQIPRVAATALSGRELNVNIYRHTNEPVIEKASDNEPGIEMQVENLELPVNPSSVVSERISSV

SMILES: CC(C)N(c1cccc(N2CCN(C)CC2)c1)S(=O)(=O)c1ccc2ccccc2c1
- inhibition: Dose-dependent effect
